PubChem BioAssay (NCI)
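Protocol summary: plate cells (96-well), add compound at 5 concentrations, incubate 48 h, interpolate endpoints linearly. GI50: concentration for 50% inhibition of growth. At the TGI there is no net growth.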

How the values were obtained:
Assay in all cases: NCI-60 cell line screen, 48 h
UO-31 renal = system: UO-31 renal
SW-620 colon = system: SW-620 colon
HCT-15 colon = system: HCT-15 colon
SNB-75 CNS = system: SNB-75 CNS
HT29 colon = system: HT29 colon
CCRF-CEM leukemia = system: CCRF-CEM leukemia
OVCAR-3 ovarian = system: OVCAR-3 ovarian
786-0 renal = system: 786-0 renal
LOX IMVI melanoma = system: LOX IMVI melanoma
HOP-92 NSCLC = system: HOP-92 NSCLC

SMILES	GI50 (UO-31 renal) [µM]	TGI (UO-31 renal) [µM]	GI50 (SW-620 colon) [µM]	TGI (SW-620 colon) [µM]	GI50 (HCT-15 colon) [µM]	TGI (HCT-15 colon) [µM]	GI50 (SNB-75 CNS) [µM]	TGI (SNB-75 CNS) [µM]	GI50 (HT29 colon) [µM]	TGI (HT29 colon) [µM]	GI50 (CCRF-CEM leukemia) [µM]	TGI (CCRF-CEM leukemia) [µM]	GI50 (OVCAR-3 ovarian) [µM]	TGI (OVCAR-3 ovarian) [µM]	GI50 (786-0 renal) [µM]	TGI (786-0 renal) [µM]	GI50 (LOX IMVI melanoma) [µM]	TGI (LOX IMVI melanoma) [µM]	GI50 (HOP-92 NSCLC) [µM]	TGI (HOP-92 NSCLC) [µM]
CC(C)(C)OC(=O)NCCCCCCCCCCn1c2c(c3ccccc3c1=O)C(=O)c1ccccc1-2	> 100	> 100	> 100	> 100	> 100	> 100	5.92	28.6	> 100	> 100	20	> 100	> 100	> 100	20.2	> 100	> 100	> 100	9.92	35.2
COc1cc2c(cc1OC)[C@@H]([C@H](O)c1ccccc1)NCC2	–	> 100	–	> 100	–	> 100	–	> 100	–	> 100	–	> 100	–	> 100	–	> 100	–	> 100	–	> 100
Cc1ncc(-c2ccnc(Nc3ccc(S(C)(=O)=O)cc3)n2)n1C(C)C	1	> 10	1.02	> 10	1.41	> 8.6	0.377	2.58	1.29	> 10	0.987	> 7.12	0.853	> 8.42	0.922	> 10	0.537	9.94	0.926	6.16
O=C(CC1C(=O)Nc2ccccc2S1(=O)=O)Nc1cccc(Cl)c1 (centres undefined)	–	32.9	–	31.6	–	31.5	–	31.8	–	32.3	–	47.2	–	29.6	–	29.1	–	28.6	–	32.2
C[n+]1c(/C=C/c2ccc(/C=N/NC(=O)c3ccc(C(=O)N/N=C/c4ccc(/C=C/c5cn6ccccc6[n+]5C)cc4)cc3)cc2)cn2ccccc21	–	> 100	–	> 100	–	> 100	–	> 100	–	> 100	–	49.8	–	> 100	–	> 100	–	> 100	–	> 100
CN(C)c1ccc(C(=C2C=CC(=[N+](C)C)C=C2)c2ccccc2Cl)cc1	0.762	6.49	0.288	1.19	0.717	4.96	0.238	0.851	0.167	1.03	0.402	5.06	0.261	0.699	0.341	1.13	0.224	0.836	0.302	1.35
CCc1ncnc2cc(OCC3CO3)c(OC)cc12 (centres undefined)	–	18.4	–	> 50.8	–	34.9	–	53.7	–	> 100	–	27.2	–	> 100	–	20.7	–	> 46.9	–	26.7
COc1cc(C2C3=C(COC3=O)Nc3cc4c(cc32)OCO4)cc2c1OCO2 (centres undefined)	0.332	> 100	0.0651	> 100	0.109	> 100	0.0337	2.75	0.0722	3.21	0.0698	> 100	0.0267	0.0695	0.138	> 100	0.0801	> 100	3.24	> 93.3
Cc1cc(S(N)(=O)=O)c(S/C(=N\Nc2ccc([N+](=O)[O-])cc2)c2ccc3ccccc3c2)cc1Cl	56	> 100	33.4	> 100	20.1	41	56.7	> 100	73.2	> 100	50.4	> 100	17.5	58.5	18.7	42.9	20.3	40.9	1.32	19.6
O=C1c2c(c3c4ccccc4[nH]c3c3[nH]c4ccccc4c23)C(=O)N1Cc1ccccc1	–	6.69	–	10.9	–	5.91	–	8.01	–	14.5	–	13.3	–	8.16	–	11.3	–	8.31	–	5.65
CCN1C(=O)N(CC)C2C1NN=c1s/c(=C\c3cccc([N+](=O)[O-])c3)c(=O)n12 (centres undefined)	0.321	> 100	0.0468	> 100	0.0486	> 100	0.0378	> 100	0.0387	> 100	0.116	> 100	0.0575	0.399	0.143	> 100	0.0568	> 100	4.05	> 100
CCN(CC)CCC(=O)/C=C/c1ccc(C)cc1	–	29.8	–	14.9	–	36.3	–	30.9	–	33	–	56.1	–	31.1	–	24.7	–	14.6	–	35.4
COc1ccc2[nH]c(O)c(/C=c3/ccc4c(c3)N=C(c3ccc(F)cc3)N=4)c2c1	1.95	5.01	4.34	> 100	5.83	> 100	1.55	3.6	3.62	16.8	4.14	> 100	3.25	11.4	1.69	3.26	2.92	> 100	2.06	8.75
Nc1ncnc2nn(C3OC(CO)C(O)C3O)nc12 (centres undefined)	–	49	–	> 100	–	45.3	–	54.1	–	> 100	–	> 67	–	> 41.1	–	> 100	–	23	–	> 100
COc1ccc(Oc2cc(NCCC(F)(F)F)c3ncc(-c4ccc(C(=O)NC5CC5)c(C)c4)n3n2)c(F)c1F	0.355	> 53.6	0.125	> 100	< 0.01	> 100	1.61	31.1	0.506	> 100	–	> 100	8.67	> 91.9	1.05	> 52.3	0.125	> 100	4.54	39.3
O=C1CCC2(c3ccccc3)Nc3ccc(Cl)cc3N12 (centres undefined)	–	> 100	–	> 100	–	> 100	–	> 100	–	> 100	–	> 100	–	> 100	–	> 100	–	> 100	–	> 100
